Experimental data as given in US12409158B2, “Combination therapy for treating cancer” (GONGWIN BIOPHARM CO., LTD, priority 2022, dated 2025).

Assays:
mTOR = assay: Western blot of mTOR in M5 tumors; format: in vivo, BALB/c nude mice; conditions: FIG. 7A
H520 cells [1] = assay: H520 lung squamous cell carcinoma xenograft, repeat experiment; format: in vivo, nude-BALB/c mice; conditions: compared to control, FIGS. 13A, 13B
Protocol: (§1) Male nude-BALB/c mice at six-weeks of age were obtained from National Laboratory Animal Breeding and Research Center, Taipei, Taiwan. Mice were housed in each cage and provided them with sterile food and water. The mice were maintained under a constant temperature (22±2° C.) and relative humidity (55±5%), with a 12:12 h light: dark cycle. The Institutional Animal Care and Use Committee (IACUC) at the National […] University (IACUC Approval No. 110003) reviewed and approved the study protocol, in which procedures were in accordance with the Guidelines for the Care and Use of Laboratory Animals published by the Taiwanese Ministry of Health and Welfare. Human non-small cell lung carcinoma cell line (H520) was purchased from ATCC Cell Bank. H520 cells were incubated in RPMI 1640 medium (cat no. 61870044; Gibco; Thermo Fisher, Inc) supplemented with 10% fetal bovine serum in an environmental containing 5% CO2 at 37° C. The experimental treatments were commenced after the implanted H520 cells had formed a detectable tumor mass, which was assessed on day 7 after implantation. […] The growth of the tumors was assessed every seven days by measuring their largest and smallest diameters, and calculated their volume according to the following formula: […] […]

H520 cells [2] = assay: H520 lung squamous cell carcinoma xenograft, first experiment; format: in vivo, nude-BALB/c mice
Protocol: as §1

ZEB1 = assay: Quantitative PCR of ZEB1 mRNA in M5 tumors; format: in vivo, BALB/c nude mice; conditions: FIG. 10
A549 cells = assay: A549 lung adenocarcinoma xenograft; format: in vivo, BALB/c nude mice
Protocol: A549 cell line was purchased from ATCC Cell Bank and was cultured in F-12K medium (cat no. ATCC 30-2004) plus 10% fetal bovine serum, at 37° C., 5% CO2. For experiments, cells were grown to 90% confluence. The experimental treatments were commenced after the implanted A549 cells had formed a detectable tumor mass, which was assessed on day 7 after implantation. Briefly, the mice were anesthetized via intraperitoneal injection of Zoletil (Virbac Taiwan, Taipei, Taiwan), and then subcutaneously injected 100 μl of cell suspension containing 6*10^6 viable A549 cells into right posterior leg. […] All treatments were administered via intraperitoneal injection (IP) or intratumoral injection (IT). The control group (Group 1) received normal saline daily, while the other three treatment groups received their corresponding treatments B.I.W (twice a week) or Q.W (once weekly). The PTS100 group (Group 2) received 330 mg/kg of PTS100 (Gongwin Biopharm Holding, Taipei, Taiwan). The normal saline+pemetrexed+Cisplatin group (Group 3) received 100 mg/kg of pemetrexed and 2 mg/kg of cisplatin. The pemetrexed+cisplatin+PTS100 (Group 4, also known as the “combination”) received 100 mg/kg of pemetrexed, 2 mg/kg of cisplatin, and 330 mg/kg of PTS 100. In group 4, when administering in combination, pemetrexed, cisplatin, PTS100 are given at different days, for example, PTS is given at Monday and Thursday, and pemetrexed+cisplatin is given at Wednesday. See Table 4 for the experimental design of the corresponding treatments, dose, injection site, concentration, volume, number of subjects and dosing frequency. The dosage of pemetrexed, cisplatin, and PTS100 were selected such that these drug affects apoptosis, invasion, metastasis, angiogenesis, and the growth signal mechanisms in […] implanted in mice. The growth of the tumors was assessed every seven days by measuring their largest and smallest diameters, and calculated their volume according to the following formula: […] [table]

Ki67 = assay: IHC analysis of Ki67 in M5 tumors; format: in vivo, BALB/c nude mice; conditions: FIGS. 9A and 9B
S6K1 = assay: Western blot of S6K1 in M5 tumors; format: in vivo, BALB/c nude mice; conditions: FIG. 7A

SMILES: Cc1ccc(S(N)(=O)=O)cc1 [PTS, p-Toluenesulfonamide]
- expression of mTOR (mTOR): downregulated
- tumor volume / tumor burden (H520 cells [1]): slight decrease
- tumor growth inhibition (H520 cells [2]; PTS100 330 mg/kg IT B.I.W., gemcitabine 160 mg/kg and cisplatin 3 mg/kg IP QW): 39.2%
- tumor volume / tumor burden (H520 cells [2]; compared to control, FIG. 12A): slight decrease
- ZEB1 mRNA expression (ZEB1): downregulation
- Inhibition (%) (tumor growth inhibition) (A549 cells; PTS100 330 mg/kg IT B.I.W., pemetrexed 100 mg/kg and cisplatin 2 mg/kg IP QW): 84.13%
- tumor volume / tumor burden (A549 cells; compared to control, FIG. 14A): slight decrease
- tumor weight (A549 cells; compared to the control, FIG. 14B): significant decrease
- Ki67 expression (Ki67): suppressed
- expression of S6K1 (S6K1): downregulated
